The text below walks through data of patent US10696898B2, “Reverse photochromic compound” (FUJIFILM Wako Pure Chemical Corporation, priority 2017, dated 2020).

Series [1] in a line: Evaluation of solubility and compatibility of compound 8 (Experiment Example 8). It counts as physicochemical. As to conditions: 20° C. The procedure: The solubility and the compatibility of the compound 8 obtained in Example 2 were evaluated in the following manner.
In other words, 100 mg of the compound 8 was weighed in a glass container (manufactured by NICHIDEN RIKA GLASS CO., LTD.), 10 mg of various organic solvents were added thereto in a state in which the temperature thereof was maintained to 20° C., and the solution was stirred for 10 minutes. In a case where the solid content remained, the operation of adding 10 mg of the organic solvents and stirring the solution for 10 minutes was repeated, and the amount (A mg) of the organic solvents to be used at the time of complete dissolution of the compound 8 was measured. The solubility (%) was acquired based on the value of A mg using the following equation. Solubility (%)=100 mg/(100 mg+A mg)×100

A short description of series [2]: Evaluation of solvent dependence of reverse photochromic characteristics of compound 8 (Experiment Example 5). Type of series: physicochemical. Here is the method: The solvent dependence of the reverse photochromic characteristics of the compound 8 was evaluated in the following manner.
Various solutions of the compound 8 obtained in Example 2 were prepared using the following methods (1-1) to (1-7).
First, 1.2 mg (8.7×10^−7 mol) of the compound 8 was weighed in a vial bottle (glass bottle), and […] of methanol was added thereto to prepare a solution having a concentration of 1.0×10^−4 mol/L. The obtained solution was poured into another vial bottle (glass bottle) and further diluted with methanol to prepare a methanol solution containing the compound 8 with a concentration of […].
First, 1.2 mg (8.7×10^−7 mol) of the compound 8 was weighed in a vial bottle (glass bottle), and 9 mL of toluene was added thereto to prepare a solution having a concentration of 9.3×10^−5 mol/L. The obtained solution was poured into another vial bottle (glass bottle) and further diluted with toluene to prepare a toluene solution containing the compound 8 with a concentration of 1.9×10^−5 mol/L.
First, 1.2 mg (8.7×10^−7 mol) of the compound 8 was weighed in a vial bottle (glass bottle), and 10 mL of acetonitrile was added thereto to prepare a solution having a concentration of 8.7×10^−5 mol/L. The obtained solution was poured into another vial bottle (glass bottle) and further diluted with acetonitrile to prepare an acetonitrile solution containing the compound 8 with a concentration of 2.2×10^−5 mol/L.
First, 1.1 mg […] of the compound 8 was weighed in a vial bottle (glass bottle), and 10 mL of chloroform was added thereto to prepare a solution having a concentration of 8.0×10^−5 mol/L. The obtained solution was poured into another vial bottle (glass bottle) and further diluted with chloroform to prepare a chloroform solution containing the compound 8 with a concentration of 1.8×10^−5 mol/L.
First, 1.5 mg […] of the compound 8 was weighed in a vial bottle (glass bottle), and 10 mL of o-dichlorobenzene was added thereto to prepare a solution having a concentration of 1.1×10^−4 mol/L. The obtained solution was poured into another vial bottle (glass bottle) and further diluted with o-dichlorobenzene to prepare an o-dichlorobenzene solution containing the compound 8 with a concentration of 2.2×10^−5 mol/L.
First, 1.3 mg (9.7×10^−7 mol) of the compound 8 was weighed in a vial bottle (glass bottle), and 10 mL of 2-propanol was added thereto to prepare a saturated solution. The supernatant of the obtained saturated solution was poured into another vial bottle (glass bottle) and further diluted with 2-propanol by three times to prepare a 2-propanol solution containing the compound 8.
First, 1.4 mg […] of the compound 8 was weighed in a vial bottle (glass bottle), and 10 mL of chlorobenzene was added thereto to prepare a solution having a concentration of 1.0×10^−4 mol/L. The obtained solution was poured into another vial bottle (glass bottle) and further diluted with chlorobenzene to prepare a chlorobenzene solution containing the compound 8 with a concentration of 2.0×10^−5 mol/L.
Various solutions containing the compound 8 obtained in the preparation (1) were put into a quartz cell having an optical path length of 1 cm together with a stirring bar, the solutions were irradiated with light while being stirred for 5 minutes under a condition of an irradiation intensity of 1 SUN (AM 1.5, 1000 W/m^2) using a solar simulator (product name: LAX-C100, manufactured by Asahi Spectra Co., Ltd.), and the absorbance of each solution at the maximum absorption wavelength was measured using a spectrophotometer (product name: V-670, manufactured by Jasco Corporation). Thereafter, the quartz cell was stored in a dark place, the absorbance at every fixed interval time was measured, and the temporal change of the absorbance of each solution at the maximum absorption wavelength was confirmed. […]

On to `C=C(C)C(=O)OCCOC(=O)c1ccccc1-c1c2ccc(=[N+](CC)CC)cc-2oc2c1CCC/C2=C\c1ccc2c(c1)c1ccccc1n2CC` [compound 8], for which the “Solubility (%)” value was 11% in series [1] (Epoxy resin (jER ®)); 38% in series [1] (organic solvent: 1-Methoxy-2-propanol (PGME)); 20% in series [1] (organic solvent: Dibutyl sebacate (DBS)); 50% in series [1] (organic solvent: Ethyl acetate (AcOEt)); 50% in series [1] (organic solvent: Methyl ethyl ketone (MEK)); 50% in series [1] (organic solvent: Methyl methacrylate (MMA)). The “Solubility (%)” value is listed as 50% in series [1] (organic solvent: Toluene, 100 mg/(100 mg+A mg)×100) and 31% in series [1] (organic solvent: Triethyl phosphate (TEP)). In addition, the maximum absorption wavelength in series [2] (2-propanol solution) is recorded as 639 nm; in series [2] (acetonitrile solution) it was 626 nm; in series [2] (chlorobenzene solution), 659 nm; in series [2] (chloroform solution), 650 nm; in series [2] (methanol solution), 632 nm; in series [2] (o-dichlorobenzene solution), 659 nm. Besides, the maximum absorption wavelength in series [2] (toluene solution) stood at 653 nm.
